Measurements as given in publication PMC8512853, “Synthesis, Bioactivity, Pharmacokinetic and Biomimetic Properties of Multi-Substituted Coumarin Derivatives” (Molecules, 2021).

Experiments:
[1] = ABTS radical scavenging assay; conditions: 6 min
Description: The ABTS radical cation scavenging assay is a decolorization assay frequently used as an antioxidant activity estimation protocol. […] The absorbance is measured at 734 nm and the antioxidant capacity is compared to a standard antioxidant solution, such as ascorbic acid.
For the evaluation of antioxidant activity, the scavenging capacities of all samples were measured via the ABTS assay, as previously described by Kontogiorgis et al. with some modifications. Briefly, an ethanolic standard ABTS solution (7 mM) was prepared by the addition of ABTS salt and potassium persulfate. […] Each sample was diluted in DMSO and tested in triplicate. The tested mixture contained 10–20 µL of sample and 990–980 µL of the ABTS solution, for a total volume of 1 ml. Blank samples contained equal amounts of DMSO instead of the coumarin analogues, and ascorbic acid was used as a reference sample for the final evaluation of the ABTS scavenging capacity. All mixtures were stored at room temperature to allow decolorization and measured after 6 min. The percentage reduction of the ABTS radical was evaluated according to the following Equation (3):(3) % Reduction=Control OD (mean)−Sample OD (mean)/Control OD (mean)×100

[2] = system: HaCaT cells; experiment: DCF-DA assay (intracellular ROS after H2O2); assay type: cell-based, human; conditions: H2O2 treatment, 24 h; for inhibition at 100 µM: Homo sapiens, 100 μΜ, read-out: DCFDA Assay, % (100 μΜ)
Description: In the setting of evaluating bioactive compounds in terms of antioxidant capacity in various cell lines, DCF-DA is the most widely used assay for the detection of intracellular H2O2 and oxidative stress. DCF-DA is cell-permeable and is hydrolyzed intracellularly to the DCFH carboxylate anion, which is retained in the cell.
DCFDA is a fluorescent dye that measures the activity of hydroxyl radicals, peroxyl radicals, and other reactive oxygen species (ROS) within the cell. The DCFDA analysis protocol is based on the diffusion of DCFDA into the cell. It is then deacetylated from cellular esterases to a non-fluorescent compound, which is later oxidized by ROS to 2’,7’ -dichlorofluoroscein (DCF). The produced compound (DCF) is fluorescent and is detected by fluorescence spectroscopy at 485/535 nm (excitation/emission).
For the experimental procedure a standard solution of DCF-DA (20mM) in DMSO was prepared which was stored in the dark (−20 °C) until use. In a 96-well plate, cells were cultured to a density of 3 × 10^4 cells/well.
The cells remained in the incubator (37 °C, 5% CO2) for 24 h, after which an appropriate amount of H2O2 (2 mM) was added and the dish was returned for incubation for the next 2 h. This was followed by the addition of the test substances (100μM) and incubation for 24 h. At the end of the treatment time, all wells were washed with PBS, and DCF-DA solution (working concentration: 10 μM) (in 200 μL of nutrient) was added and incubated for 40 min.
After incubation, the medium with the DCF-DA was removed and replaced with FBS-free DMEM. The measurement of the […] was made immediately after that in a plate reader at 495/530 nm (excitation/emission).
All samples were tested in triplicates, against a control (without effects), blank (without cells), and positive control (standard 100 μM Ascorbic acid solution was used).
The percentage of antioxidant capacity (%) was calculated according to the following Equation (6) evaluating the presence of ROS [42]:(6) % AI=( OD Sample 530 nm−Blank)−(OD Control 530 nm−Blank)/(OD Control 530 nm−Blank) × 100

[3] = IAM chromatography (IAM.PC.DD.2 column) and estimated human oral absorption; assay type: in vitro ADME; conditions: for %HOA estimated human oral absorption: Equation (1) from logkw and physicochemical properties; for logkw (IAM retention factor): pH 7.40, IAM.PC.DD.2, intercept at pure aqueous phase
Description: The immobilized artificial membrane (IAM) chromatographic behavior of the 25 novel coumarin derivatives was studied. IAM stationary phases consisting of monolayers of phospholipids (e.g., phosphatidylcholine, PC) immobilized on a propylamine–silica support can simulate interactions of chemicals with cell membranes.
Using an IAM.PC.DD2 column (Regis Technologies) as the stationary phase with PBS as the mobile phase at pH = 7.40, and a flow rate of 3 mL/min in the presence of acetonitrile fractions (C%) of 10%, 15%, 20%, 25%, and 30%, a logkC% value was obtained via the retention time for each concentration of CH3CN. Retention factors were then used to plot logkC% as a function of acetonitrile fraction. The intercept of the linear regression corresponds to the logkw, corresponding to pure aqueous phase.
(1) % HOA=100/1+10^−(2.17+0.88*logkw−0.006*MW−0.83*A−0.53*F^*++1.18*F^*−)
The physicochemical and biomimetic properties of the new coumarin analogues were studied using liquid chromatography (HPLC) in 220–230 nm Two types of chromatographic columns were used: (i) immobilized artificial membrane (IAM) ([…].PC.DD.2, Regis Technologies) column and (ii) human serum albumin (HSA) (CHIRAL PAK) column.
The training set consisted of 25 neutral and slightly acidic compounds. Their IAM retention factors were measured at pH 7.40 on a IAM.PC.DD.2 column. The mobile phase consisted of acetonitrile solvent (CH3CN) in various concentrations (10%, 15%, 20%, 25%, 30%) and a flow rate of 3 mL/min was selected. Their HSA retention factors were measured at pH 7.00 on HSA column. The mobile phase consisted of acetonitrile solvent (CH3CN) in 10% concentration and a flow rate of 1 mL/min was selected.
The different pH values (7.00 for HSA and 7.40 for IAM) were measured with an electronic pH meter MP125 and were achieved by preparing suitable buffers of phosphates and chlorides (0.12 g KH2PO4, 0.72 g Na2HPO4·2H2O, 4.00 g NaCl and 0.10 g KCl). Sodium citrate solution was used to determine the dead time, which was deducted from the results at the end of measurements. The elution time of each coumarin analogue was measured at least three times. Retention times were converted into logk values, which represent the logarithm of the retention indexes, using Equation (8). (8) logk=log(tr−t0/t0) where tr is the retention time of the coumarin derivative and t0 is the dead time.

Row | SMILES | ABTS^•+ % (100 μΜ) [1] | inhibition at 100 µM [2] [%] | %HOA estimated human oral absorption [3] [%] | logkw (IAM retention factor) [3] | DCFDA Assay, % (100 μΜ) [2]
1 | CC(=O)Oc1cccc2oc(=O)c(-c3ccccc3Cl)c(C)c12 [Compound 3a, 5-acetyloxy-3-(2-chlorophenyl)-4-methyl-chromen-2-one] | no | 33.8 | 100 | 3.58 | –
2 | CC(=O)Oc1cccc2oc(=O)c(-c3cccc(Cl)c3)c(C)c12 [Compound 3b, 5-acetyloxy-3-(3-chlorophenyl)-4-methyl-chromen-2-one] | 1.9% | 56.9 | 99.8 | 2.88 | –
3 | CC(=O)Oc1cccc2oc(=O)c(-c3ccc(Cl)cc3)c(C)c12 [Compound 3c, 5-acetyloxy-3-(4-chlorophenyl)-4-methyl-chromen-2-one] | 15.0% | – | 99.9 | 3.05 | no
4 | CC(=O)Oc1cccc2oc(=O)c(-c3ccccc3F)c(C)c12 [Compound 3d, 5-acetyloxy-3-(2-fluorophenyl)-4-methyl-chromen-2-one] | no | 22.4 | 99.7 | 2.56 | –
5 | CC(=O)Oc1cccc2oc(=O)c(-c3cccc(F)c3)c(C)c12 [Compound 3e, 5-acetyloxy-3-(3-fluorophenyl)-4-methyl-chromen-2-one] | 2.0% | – | 99.7 | 2.47 | no
6 | CC(=O)Oc1cccc2oc(=O)c(-c3ccc(F)cc3)c(C)c12 [Compound 3f, 5-acetyloxy-3-(4-fluorophenyl)-4-methyl-chromen-2-one] | no | 100 | 99.7 | 2.52 | –
7 | CC(=O)Oc1cccc2oc(=O)c(-c3cccc(Br)c3)c(C)c12 [Compound 3g, 5-acetyloxy-3-(3-bromophenyl)-4-methyl-chromen-2-one] | 2.8% | 45.5 | 100.0 | 4.77 | –
8 | CC(=O)Oc1ccc(-c2c(C)c3ccccc3oc2=O)cc1 [Compound 3h, 3-(4-acetyloxyphenyl)-4-methyl-chromen-2-one] | no | – | 99.7 | 2.48 | no
9 | CC(=O)Oc1ccc(-c2c(C)c3cc(Br)ccc3oc2=O)cc1 [Compound 3i, 3-(4-acetyloxyphenyl)-6-bromo-4-methyl-chromen-2-one] | no | 80.9 | 99.8 | 3.28 | –
10 | CC(=O)Oc1ccc(-c2c(C)c3cc(Cl)ccc3oc2=O)cc1 [Compound 3j, 3-(4-acetyloxyphenyl)-6-chloro-4-methyl-chromen-2-one] | no | 9 | 99.9 | 3.06 | –
11 | CC(=O)Oc1ccc(-c2c(C)c3cc(Br)cc(Br)c3oc2=O)cc1 [Compound 3k, 3-(4-acetyloxyphenyl)-6,8-dibromo-4-methyl-chromen-2-one] | no | – | 99.9 | 3.91 | no
12 | CC(=O)Oc1ccc(-c2c(C)c3ccccc3oc2=O)cc1OC(C)=O [Compound 3l, 3-(4,5-diacetyloxyphenyl)-4-methyl-chromen-2-one] | 2.8% | – | 99.4 | 2.43 | no
13 | CC(=O)Oc1ccc(-c2c(C)c3cc(Br)ccc3oc2=O)cc1OC(C)=O [Compound 3m, 3-(4,5-diacetyloxyphenyl)-6-bromo-4-methyl-chromen-2-one] | no | – | 99.6 | 3.21 | no
14 | CC(=O)Oc1ccc(-c2c(C)c3cc(Cl)ccc3oc2=O)cc1OC(C)=O [Compound 3n, 3-(4,5-diacetyloxyphenyl)-6-chloro-4-methyl-chromen-2-one] | no | – | 99.7 | 3.04 | no
15 | CC(=O)Oc1ccc(-c2c(C)c3cc(Br)cc(Br)c3oc2=O)cc1OC(C)=O [Compound 3o, 3-(4,5-diacetyloxyphenyl)-6,8-dibromo-4-methyl-chromen-2-one] | no | 25.7 | 99.6 | 3.79 | –
16 | Cc1c(-c2ccccc2Cl)c(=O)oc2cccc(O)c12 [Compound 4a, 3-(2-chlorophenyl)-5-hydroxy-4-methyl-chromen-2-one] | 56.5% | 0 | 100 | 4.09 | –
17 | Cc1c(-c2cccc(Cl)c2)c(=O)oc2cccc(O)c12 [Compound 4b, 3-(3-chlorophenyl)-5-hydroxy-4-methyl-chromen-2-one] | 49.2% | 27.4 | 99.9 | 3.73 | –
18 | Cc1c(-c2ccc(Cl)cc2)c(=O)oc2cccc(O)c12 [Compound 4c, 3-(4-chlorophenyl)-5-hydroxy-4-methyl-chromen-2-one] | 65.2% | – | 100 | 4.53 | no
19 | Cc1c(-c2ccccc2F)c(=O)oc2cccc(O)c12 [Compound 4d, 3-(2-fluorophenyl)-5-hydroxy-4-methyl-chromen-2-one] | 73.3% | – | 100 | 4.69 | no
20 | Cc1c(-c2ccc(O)cc2)c(=O)oc2c(Br)cc(Br)cc12 [Compound 4k, 6,8-dibromo-3-(4-hydroxyphenyl)-4-methyl-chromen-2-one] | 27.8% | – | – | – | no
